# Reference: patent US20230085307A1, “PYRIDAZINONE COMPOUND AND HERBICIDE” (NISSAN CHEMICAL CORPORATION, priority 2019, published 2023)
# Experiments:
# [1] = system: Japanese bulrush; experiment: Test Example 1: herbicidal activity, application before weed generation under submerged conditions (Table 16, symbol B); format: in vivo, Japanese bulrush (Schoenoplectus juncoides); details: 320 g/ha applied herbicide
# Summary of the method: (§1)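 Submerged Wagner pots (alluvial soil, 4 cm water) sown with weed seeds and planted with 2.5-leaf rice seedlings; emulsifiable concentrate diluted in water applied to water surface on sowing day. Held in greenhouse at 25-30 °C; injury scored 0-5 by herbicidal rate after three weeks.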
# [2] = system: oval-leafed pondweed; experiment: Test Example 1: herbicidal activity, application before weed generation under submerged conditions (Table 16, symbol C); format: in vivo, oval-leafed pondweed (Monochoria vaginalis); details: 320 g/ha applied herbicide
# Summary of the method: as §1
# [3] = system: Japanese bulrush; experiment: Test Example 2: herbicidal activity, application during weed generation under submerged conditions (Table 17, symbol B); format: in vivo, Japanese bulrush (Schoenoplectus juncoides); details: AAH 320 g/ha; application during weed generation, submerged conditions
# Summary of the method: (§2)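 Alluvial soil in Wagner pots was flooded to 4 cm depth and sown with the three weeds together; pots were kept in a greenhouse at 25° C. to 30° C. At the one to two leaf stage, an emulsion formulation diluted in water to a set rate went onto the water surface; scored three weeks later.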
# [4] = system: oval-leafed pondweed; experiment: Test Example 2: herbicidal activity, application during weed generation under submerged conditions (Table 17, symbol C); format: in vivo, oval-leafed pondweed (Monochoria vaginalis); details: AAH 320 g/ha; application during weed generation, submerged conditions
# Summary of the method: as §2
# [5] = system: barnyard grass; experiment: Test Example 3: herbicidal effect by foliage application, Wagner pot (Table 18, symbol H); format: in vivo, barnyard grass (Echinochloa crus-galli); details: for herbicidal effect on H (barnyard grass), rating 0-5: 320 g/ha
# Summary of the method: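 Plants were sown in alluvial soil held under 0.1–0.5 cm standing water and grown 14 days in a greenhouse at 25–30 °C. An emulsifiable formulation, water-diluted to the set dose, was then sprayed onto the foliage, and effects were scored three weeks later using previously defined criteria.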
# [6] = system: green foxtail; experiment: Test Example 4: herbicidal effect by soil treatment (Table 19, symbol G); format: in vivo, green foxtail (Setaria viridis); details: amount of applied herbicide 320 g/ha
# Summary of the method: (§3)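 Soil-surface application: an emulsion agent diluted with water to the predetermined dose is sprayed uniformly over seeds lying under roughly 1.5 cm of sterilized diluvial soil. Boxes stay in a greenhouse at 25° C. to 30° C. Three weeks later, each species is graded on previously defined criteria.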
# [7] = system: barnyard grass; experiment: Test Example 4: herbicidal effect by soil treatment (Table 19, symbol H); format: in vivo, barnyard grass (Echinochloa crus-galli); details: amount of applied herbicide 320 g/ha
# Summary of the method: as §3
# [8] = system: blackgrass; experiment: Test Example 4: herbicidal effect by soil treatment (Table 19, symbol J); format: in vivo, blackgrass (Alopecurus myosuroides); details: amount of applied herbicide 320 g/ha
# Summary of the method: as §3
# [9] = system: velvetleaf; experiment: Test Example 4: herbicidal effect by soil treatment (Table 19, symbol M); format: in vivo, velvetleaf (Abutilon theophrasti); details: amount of applied herbicide 320 g/ha
# Summary of the method: as §3
# [10] = system: redroot pigweed; experiment: Test Example 4: herbicidal effect by soil treatment (Table 19, symbol N); format: in vivo, redroot pigweed (Amaranthus retroflexus); details: amount of applied herbicide 320 g/ha
# Summary of the method: as §3
# [11] = system: persian speedwell; experiment: Test Example 4: herbicidal effect by soil treatment (Table 19, symbol R); format: in vivo, Persian speedwell (Veronica persica); details: amount of applied herbicide 320 g/ha
# Summary of the method: as §3
# [12] = system: southern crabgrass; experiment: Test Example 5: herbicidal effect by foliage application, plastic box (Table 20, symbol F); format: in vivo, southern crabgrass (Digitaria ciliaris); details: foliage application, 320 g/ha; for herbicidal effect grade, F: southern crabgrass: three weeks after application
# Summary of the method: (§4)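 Sow seeds spot-wise in sterilized diluvial soil; cover with ~1.5 cm soil. Grow 14 days in greenhouse, 25° C. to 30° C. Spray foliage with emulsion diluted to predetermined amount. Rate effect after 3 weeks.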
# [13] = system: green foxtail; experiment: Test Example 5: herbicidal effect by foliage application, plastic box (Table 20, symbol G); format: in vivo, green foxtail (Setaria viridis); details: foliage application, 320 g/ha, three weeks after application
# Summary of the method: as §4
# [14] = system: blackgrass; experiment: Test Example 5: herbicidal effect by foliage application, plastic box (Table 20, symbol J); format: in vivo, blackgrass (Alopecurus myosuroides); details: foliage application, 320 g/ha; for herbicidal effect grade, J: blackgrass: three weeks after application
# Summary of the method: as §4
# [15] = system: windgrass; experiment: Test Example 5: herbicidal effect by foliage application, plastic box (Table 20, symbol L); format: in vivo, windgrass (Apera spica-venti); details: foliage application, 320 g/ha; for herbicidal effect grade, L: windgrass: three weeks after application
# Summary of the method: as §4
# [16] = system: velvetleaf; experiment: Test Example 5: herbicidal effect by foliage application, plastic box (Table 20, symbol M); format: in vivo, velvetleaf (Abutilon theophrasti); details: foliage application, 320 g/ha; for herbicidal effect grade, M: velvetleaf: three weeks after application
# Summary of the method: as §4
# [17] = system: persian speedwell; experiment: Test Example 5: herbicidal effect by foliage application, plastic box (Table 20, symbol R); format: in vivo, Persian speedwell (Veronica persica); details: foliage application, 320 g/ha; for herbicidal effect grade, R: persian speedwell: three weeks after application
# Summary of the method: as §4
# [18] = evaluated three weeks after application
SMILES,Herbicidal effect on B: Japanese bulrush (grade 0-5) [1],Herbicidal effect on C: oval-leafed pondweed (grade 0-5) [2],"herbicidal effect rating, B: Japanese bulrush [3]","herbicidal effect rating, C: oval-leafed pondweed [4]","herbicidal effect on H (barnyard grass), rating 0-5 [5]","herbicidal effect rating, G: green foxtail [6]","herbicidal effect rating, H: barnyard grass [7]","herbicidal effect rating, J: blackgrass [8]","herbicidal effect rating, M: velvetleaf [9]","herbicidal effect rating, N: redroot pigweed [10]","herbicidal effect rating, R: persian speedwell [11]","herbicidal effect grade, F: southern crabgrass [12]","herbicidal effect grade, G: green foxtail [13]","herbicidal effect grade, J: blackgrass [14]","herbicidal effect grade, L: windgrass [15]","herbicidal effect grade, M: velvetleaf [16]","herbicidal effect grade, R: persian speedwell [17]",further results
Cc1nn(C)c(=O)c(-c2c(-c3ccc(OC(C)C)cc3)sc3ccccc23)c1O [1-020],5 (Herbicidal rate of 90% or more (almost completely withered)),4 (Herbicidal rate of 70% or more and less than 90%),3 (Herbicidal rate of 40% or more and less than 70%),3 (Herbicidal rate of 40% or more and less than 70%),5 (Herbicidal rate of 90% or more (almost completely withered)),5 (Herbicidal rate of 90% or more (almost completely withered)),5 (Herbicidal rate of 90% or more (almost completely withered)),1 (Herbicidal rate of 5% or more and less than 20%),0 (Herbicidal rate of 5% or less (almost no effect)),0 (Herbicidal rate of 5% or less (almost no effect)),5 (Herbicidal rate of 90% or more (almost completely withered)),3 (Herbicidal rate of 40% or more and less than 70%),3 (Herbicidal rate of 40% or more and less than 70%),4 (Herbicidal rate of 70% or more and less than 90%),5 (Herbicidal rate of 90% or more (almost completely withered)),3 (Herbicidal rate of 40% or more and less than 70%),5 (Herbicidal rate of 90% or more (almost completely withered)),
CCCC(=O)Oc1c(C)nn(C)c(=O)c1-c1c(-c2ccc(OC(C)C)cc2)sc2ccccc12 [1-021],5 (Herbicidal rate of 90% or more (almost completely withered)),4 (Herbicidal rate of 70% or more and less than 90%),3 (Herbicidal rate of 40% or more and less than 70%),0 (Herbicidal rate of 5% or less (almost no effect)),5 (Herbicidal rate of 90% or more (almost completely withered)),1 (Herbicidal rate of 5% or more and less than 20%),0 (Herbicidal rate of 5% or less (almost no effect)),0 (Herbicidal rate of 5% or less (almost no effect)),3 (Herbicidal rate of 40% or more and less than 70%),0 (Herbicidal rate of 5% or less (almost no effect)),5 (Herbicidal rate of 90% or more (almost completely withered)),3 (Herbicidal rate of 40% or more and less than 70%),4 (Herbicidal rate of 70% or more and less than 90%),1 (Herbicidal rate of 5% or more and less than 20%),0 (Herbicidal rate of 5% or less (almost no effect)),3 (Herbicidal rate of 40% or more and less than 70%),5 (Herbicidal rate of 90% or more (almost completely withered)),
CCCCOc1ccc(-c2sc3ccccc3c2-c2c(O)c(C)nn(C)c2=O)cc1 [1-024],5 (Herbicidal rate of 90% or more (almost completely withered)),5 (Herbicidal rate of 90% or more (almost completely withered)),4 (Herbicidal rate of 70% or more and less than 90%),5 (Herbicidal rate of 90% or more (almost completely withered)),5 (Herbicidal rate of 90% or more (almost completely withered)),0 (Herbicidal rate of 5% or less (almost no effect)),3 (Herbicidal rate of 40% or more and less than 70%),0 (Herbicidal rate of 5% or less (almost no effect)),4 (Herbicidal rate of 70% or more and less than 90%),4 (Herbicidal rate of 70% or more and less than 90%),4 (Herbicidal rate of 70% or more and less than 90%),5 (Herbicidal rate of 90% or more (almost completely withered)),5 (Herbicidal rate of 90% or more (almost completely withered)),4 (Herbicidal rate of 70% or more and less than 90%),4 (Herbicidal rate of 70% or more and less than 90%),5 (Herbicidal rate of 90% or more (almost completely withered)),5 (Herbicidal rate of 90% or more (almost completely withered)),
CCCC(=O)Oc1c(C)nn(C)c(=O)c1-c1c(-c2ccc(SC)cc2)sc2ccccc12 [1-037],4 (Herbicidal rate of 70% or more and less than 90%),3 (Herbicidal rate of 40% or more and less than 70%),1 (Herbicidal rate of 5% or more and less than 20%),3 (Herbicidal rate of 40% or more and less than 70%),5 (Herbicidal rate of 90% or more (almost completely withered)),5 (Herbicidal rate of 90% or more (almost completely withered)),2 (Herbicidal rate of 20% or more and less than 40%),0 (Herbicidal rate of 5% or less (almost no effect)),3 (Herbicidal rate of 40% or more and less than 70%),5 (Herbicidal rate of 90% or more (almost completely withered)),3 (Herbicidal rate of 40% or more and less than 70%),3 (Herbicidal rate of 40% or more and less than 70%),5 (Herbicidal rate of 90% or more (almost completely withered)),4 (Herbicidal rate of 70% or more and less than 90%),0 (Herbicidal rate of 5% or less (almost no effect)),5 (Herbicidal rate of 90% or more (almost completely withered)),5 (Herbicidal rate of 90% or more (almost completely withered)),
CCCCCOc1cccc(-c2sc3ccc(F)cc3c2-c2c(O)c(C)nn(C)c2=O)c1 [2-225],3 (Herbicidal rate of 40% or more and less than 70%),3 (Herbicidal rate of 40% or more and less than 70%),3 (Herbicidal rate of 40% or more and less than 70%),0 (Herbicidal rate of 5% or less (almost no effect)),,,,,,,,,,,,,,"herbicidal effect on H: barnyard grass ([5]; amount of applied herbicide 320 g/ha): 4 (Herbicidal rate of 70% or more and less than 90%); herbicidal effect on G: green foxtail [6]: 0 (Herbicidal rate of 5% or less (almost no effect)); herbicidal effect on H: barnyard grass [7]: 0 (Herbicidal rate of 5% or less (almost no effect)); herbicidal effect on J: blackgrass [8]: 0 (Herbicidal rate of 5% or less (almost no effect)); herbicidal effect on M: velvetleaf [9]: 0 (Herbicidal rate of 5% or less (almost no effect)); herbicidal effect on N: redroot pigweed [10]: 5 (Herbicidal rate of 90% or more (almost completely withered)); herbicidal effect on R: persian speedwell [11]: 0 (Herbicidal rate of 5% or less (almost no effect)); herbicidal effect on F: southern crabgrass (criteria 0-5) [12, 18]: 2 (Herbicidal rate of 20% or more and less than 40%); herbicidal effect on J: blackgrass (criteria 0-5) [14, 18]: 0 (Herbicidal rate of 5% or less (almost no effect)); herbicidal effect on L: windgrass (criteria 0-5) [15, 18]: 4 (Herbicidal rate of 70% or more and less than 90%); herbicidal effect on M: velvetleaf (criteria 0-5) [16, 18]: 5 (Herbicidal rate of 90% or more (almost completely withered)); herbicidal effect on R: persian speedwell (criteria 0-5) [17, 18]: 5 (Herbicidal rate of 90% or more (almost completely withered))"
